# Assays:
# Conditions in all cases: 72 h
# Caco-2 [1] = test: cell viability relative to DMSO; higher = less toxic
# Calu-3 [2] = test: as above
# Vero E6 [3] = test: as above
# U2OS [4] = test: as above
# HepG2 [5] = test: as above
# Caco-2 [6] = test: relative viability EC50 (midpoint between 100% and the lowest measured viability); higher = less toxic
# Calu-3 [7] = test: as above
# Vero E6 [8] = test: as above
# U2OS [9] = test: as above
# HepG2 [10] = test: as above
# Caco-2 [11] = test: drug sensitivity score (DSS) for viability; higher = more toxic; extreme values may be limits of the assay
# Calu-3 [12] = test: as above
# Vero E6 [13] = test: as above
# U2OS [14] = test: as above
# HepG2 [15] = test: as above
SMILES,cell viability (Caco-2 [1]; 1 nM) [%],cell viability (Caco-2 [1]; 10 nM) [%],cell viability (Caco-2 [1]; 100 nM) [%],cell viability (Caco-2 [1]; 1000 nM) [%],cell viability (Caco-2 [1]; 10000 nM) [%],cell viability (Calu-3 [2]; 1 nM) [%],cell viability (Calu-3 [2]; 10 nM) [%],cell viability (Calu-3 [2]; 100 nM) [%],cell viability (Calu-3 [2]; 1000 nM) [%],cell viability (Calu-3 [2]; 10000 nM) [%],cell viability (Vero E6 [3]; 1 nM) [%],cell viability (Vero E6 [3]; 10 nM) [%],cell viability (Vero E6 [3]; 100 nM) [%],cell viability (Vero E6 [3]; 1000 nM) [%],cell viability (Vero E6 [3]; 10000 nM) [%],cell viability (U2OS [4]; 1 nM) [%],cell viability (U2OS [4]; 10 nM) [%],cell viability (U2OS [4]; 100 nM) [%],cell viability (U2OS [4]; 1000 nM) [%],cell viability (U2OS [4]; 10000 nM) [%],cell viability (HepG2 [5]; 1 nM) [%],cell viability (HepG2 [5]; 10 nM) [%],cell viability (HepG2 [5]; 100 nM) [%],cell viability (HepG2 [5]; 1000 nM) [%],cell viability (HepG2 [5]; 10000 nM) [%],relative viability EC50 (Caco-2 [6]) [µM],relative viability EC50 (Calu-3 [7]) [µM],relative viability EC50 (Vero E6 [8]) [µM],relative viability EC50 (U2OS [9]) [µM],relative viability EC50 (HepG2 [10]) [µM],drug sensitivity score (Caco-2 [11]),drug sensitivity score (Calu-3 [12]),drug sensitivity score (Vero E6 [13]),drug sensitivity score (U2OS [14]),drug sensitivity score (HepG2 [15])
CCCc1c(OCCCOc2ccc(OCC(=O)O)cc2)ccc(C(C)=O)c1O,97.2,90.6,88.8,95.7,103,101,94.8,93.6,101,107,107,99.5,106,102,94.2,94.3,98.6,93.4,96.5,102,102,106,107,104,92.8,> 10,> 10,> 10,> 10,> 10,0,0,0,0,0
C[C@H]1CO[C@@H]2Cn3cc(C(=O)NCc4ccc(F)cc4F)c(=O)c(O)c3C(=O)N12,107,90.1,98,98.5,81.6,109,94,104,95.2,92.2,88.9,99.7,94.3,97.5,89.6,95.6,92.4,99.4,92.2,88.5,104,112,97.1,112,56.9,> 10,> 10,> 10,> 10,–,0.6,0,0,0,1.6
Cc1cn2c(N)c(Cl)cc(C(=O)NCC3CCN(CC(C)C)CC3)c2n1,103,83.1,103,99.7,107,102,96.5,99.9,93.4,99.9,88,101,90.2,96.5,99.2,101,95.1,102,97.6,95.4,107,99.6,102,88.1,97.1,> 10,> 10,> 10,> 10,> 10,0,0,0,0,0.5
O=C(Oc1ccc(Br)cc1)N1CCN2CCC1CC2,101,105,94.2,98,102,97.5,101,101,100,95.7,94.2,101,93.5,95.5,104,99,102,104,99,98.4,97.7,101,97,103,108,> 10,> 10,> 10,> 10,> 10,0,0,0,0,0
O=C(NC1CCN(Cc2ccccc2)CC1)c1ccc(I)cc1 [4-IBP],104,101,99.4,103,88.8,104,104,104,95.9,102,109,106,107,101,93.2,102,99.9,101,97.6,98.8,94.5,108,104,105,68,> 10,> 10,> 10,> 10,–,0,0,0,0,1.2
Cc1c(O)c(=O)n(-c2ccccc2)n1C [4-hydroxy-phenazone],98.7,98.7,90.2,92.3,90.6,107,105,101,96.8,102,98,98.3,103,103,92.9,–,–,–,–,–,102,103,110,96.6,115,> 10,> 10,> 10,–,> 10,0,0,0,–,0
Cc1c(Cl)cccc1S(=O)(=O)Nc1nc(CC(=O)N2CCN(C)CC2)cs1 [BVT-2733],106,92.6,100,106,98.3,108,102,92.5,102,106,103,101,107,102,94.6,–,–,–,–,–,104,101,92.7,104,97.4,> 10,> 10,> 10,–,> 10,0,0,0,–,0
O=c1[nH]nc2c3c(cccc13)N=C(CN1Cc3ccccc3C1)N2 [E7449],127,104,102,99,89.1,109,99.1,98.6,97.6,88.6,102,100,96.3,96.3,83.7,105,106,106,94.7,87.3,95,103,98.6,95.9,59.8,> 10,> 10,> 10,> 10,–,0,0.1,0.6,0.3,2.7
CCn1cc(-c2cccc(C(F)(F)F)c2)c2sc(C(=N)NC3CCS(=O)(=O)CC3)cc2c1=O [I-BRD9],111,102,97,97.8,93.5,112,99.5,106,95.4,79.5,95.1,95.8,98.7,98.1,92.3,103,102,99.1,99.5,92,94.4,99.2,98.6,97.5,63.4,> 10,> 10,> 10,> 10,–,0,1.2,0,0,2.1
CCC1(c2ccccc2)C(=O)N(COC)C(=O)N(COC)C1=O [eterobarb],102,90.8,95.3,105,111,111,88.2,110,88.5,105,112,110,102,106,86.8,–,–,–,–,–,105,114,97.4,100,88.4,> 10,> 10,> 10,–,> 10,0,0,0,–,0
CC(C)(CO)CCCCCCC(C)(C)CO [gemcadiol],89.7,129,113,128,92.2,97.4,93.5,100,94.3,105,93.8,102,102,103,108,97,94.5,103,96.8,98.7,–,–,–,–,–,> 10,> 10,> 10,> 10,–,0,0,0,0,–
N=C(N)SCCc1c[nH]cn1 [imetit],97.2,99.1,97,100,93.5,97.8,109,97,93.7,87.8,103,103,103,97.1,101,–,–,–,–,–,112,111,95.9,95.2,112,> 10,> 10,> 10,–,> 10,0,0.1,0,–,0
COc1cc([S+](C)[O-])ccc1-c1nc2cccnc2[nH]1 (stereo not drawn) [sulmazole],115,98.5,98.8,99.5,112,108,90.3,90.7,93.8,104,98,102,98.5,97.8,101,–,–,–,–,–,106,103,95.5,102,100,> 10,> 10,> 10,–,> 10,0,0,0,–,0
C=C[C@]1(C)C[C@@H](OC(=O)CSC(C)(C)CNC(=O)[C@H](N)C(C)C)[C@]2(C)[C@H](C)CC[C@]3(CCC(=O)[C@H]32)[C@@H](C)[C@@H]1O [valnemulin],99.4,93.3,91.8,94.5,80.9,94.3,98.6,102,101,98.9,97.1,98.7,103,95.1,88.3,97.4,99.4,97.7,96.3,79.5,98.6,104,93.7,88.1,63,> 10,> 10,> 10,> 10,–,0.7,0,0.2,1.1,3

# From the supplement of paper PMC13380429
